# In patent US20230159436A1, “APPLICATIONS OF AMIDE ANALOGS OF TRITERPENES IN CURES OF CANCER AND OTHER DISEASES” (Pacific Arrow Limited, priority 2021, published 2023):
# Like-named read-outs stand apart in the source and are kept apart here.
# Legend:
# [1] = system: U2OS; experiment: MTT assay, bone (U2OS); assay type: cell-based
# Description: (§1) Cells. HTB-9 (bladder), HeLa-S3 (cervix), DU145 (prostate), H460 (lung), MCF-7 (breast), K562 (leukemia), HCT116 (colon), HepG2 (liver), U2OS (bone), T98G (brain), SK-MEL-5 (Skin) and OVCAR 3, ES2 (ovary), Pancreas (Capan), Mouth (KB), Kidney (A498).
# (§2) MTT Assay. The procedure for MTT assay followed the method described by Carmichael et al. (1987) with modifications. The cells were seeded into a 96-well plate at for 24 hours before drug-treatment. The cells were then exposed to the drugs for 48, 72, or 96 hours. After the drug-treatment, MTT (0.5 mg/mL) was added to cultures and incubated for an hour. The formazan (product of the reduction of tetrazolium by viable cells) formed and was dissolved with DMSO and the O.D. at 490 nm, and was measured by an ELISA reader. The MTT level of the cells before drug-treatment was also measured (T0). The % cell-growth (% G) is calculated as: % G=(TD−T0/TC−T0)×100(1), where TC or TD represents O.D. readings of control or drug-treated cells.
# (§3) When T0>TD, then the cytotoxicity (LC) expressed as % of the control is calculated as: % LC=(TD−T0/T0)×100(2).
# [2] = system: HCT116; experiment: MTT assay, colon (HCT116); assay type: cell-based
# Description: as §1, §2, §3
# [3] = system: A498; experiment: MTT assay, kidney (A498); assay type: cell-based
# Description: as §1, §2, §3
# [4] = system: red blood cells (RBC); experiment: Haemolytic assay; assay type: cell-based, human
# Description: Erythrocytes (RBC) were isolated from human blood (EDTA whole blood, collected randomly). 50 ul of the 10% RBC suspension (in PBS) was added to 2 ml of sample solutions (concentration range from 0.1 ug/ml to 400 ug/ml) in PBS. The mixture was vortexed briefly and sat for 60 min at room temperature. The mixture was spun at 3K for 10 min and the relative amounts of lysed hemoglobin in the supernatant were measured at 540 nm. The synthetic compounds of present application were tested with this method.
# [5] = system: K562 cells; experiment: Inhibition of cell cycling (flow cytometry); assay type: cell-based, human; conditions: K562, three days, 0-20 ug/ml
# Description: Experiment 31: Inhibition of Cell Cycling • 1. Method: Cells: Human leukemia cells K562 cultured in RPMI1640 medium. • 2. Drug: compound from present application or Tig-S (1000× stock solution in DMSO). • 3. Start cells concentration: 500000/ml. • 4. Cells were cultured with drug (0-20 ug/ml) for total of three days. • 5. Cells were harvested by centrifugation (136×g, 6 minutes); fixed with 70% ethanol and kept in −20 C before staining. • 6. Staining: Fixed cells were stained with Propidium iodide/RNase A/0.1% Triton X-100 in PBS. • 7. Flow Cytometry Analysis was performed in Baylor Core Facility with a LSRII instrument. • 8. Analysis: Single cell was gated and cell count—FL2-Area histogram were plotted. • 9. Cell distribution in different cell-cycle phases (G0/G1, S, G2/M) was analyzed.
Structure (SMILES),IC50 of bone (U2OS) [1] [µg/mL],IC50 of colon (HCT116) [2] [µg/mL],IC50 of kidney (A498) [3] [µg/mL],hemolytic activity [4],hemolytic activity ([4]; up to 20 ug/ml),effect on cell cycle [5]
"CC=C(C)C(=O)OCC1(C)C(O)CCC2(C)C1CCC1(C)C2CC=C2C3CC(C)(C)C(O)C(O)C3(COC(=O)C(C)=CC)C(O)CC21C (stereo not drawn) [Tig-R, 24,28-O-Tigloyl-3β,16α,21β,22α,24β,28-hexahydroxyolean-12-ene]",4.5,5.2,3.5,no hemolytic activity,do not have hemolytic activity,
CC=C(C)C(=O)OCC1(C)C(O)CCC2(C)C1CCC1(C)C2CC=C2C3CC(C)(C)C(OC(=O)C(C)=CC)C(O)C3(CO)C(O)CC21C (stereo not drawn) [Tig-S],,,,,,arrested in the S-phase
